Literature values in patent US5686420A, “Thyrotropin-releasing hormone analogs and method of use” (Georgetown University, priority 1995, dated 1997).

Details: in vivo

For NC(=O)[C@@H]1CCCN1C(=O)[C@H](Cc1cnc[nH]1)NC(=O)[C@@H]1CCC(=O)N1 [TRH, L-pyroglutamyl-L-histidyl-L-prolineamide], the plasma half-life is given as 4 to 5 min.
